Results published in patent US10849966B2, “Methods for treating netosis and neutrophil activation” (TRUSTEES OF BOSTON UNIVERSITY, priority 2017, dated 2020).

Assays:
Panc1 xenograft = Panc1 xenograft model survival; settings: in vivo
[1] = test system: DEspR+/CD11b+ neutrophils; experiment: ex vivo treatment of ARDS patient whole blood, neutrophil survival (FACS); type: cell-based, human; parameters: baseline DEspR+/CD11b+ neutrophil percentage: concentration or dose not given beside the values; settings: for Observed decrease in neutrophil survival: 10 μg/ml; for baseline DEspR+/CD11b+ neutrophil percentage: equals baseline DEspR+/CD11b+ neutrophils
Experimental: Neutrophils were gated for unique size/granularity properties via FSC (size) and SSC (granularity) gating. […] FSC, forward side scatter. SSC, side scatter. N=4-5 replicates; mean+/−SD. Whole blood incubated at 37 C for 24 hours (reg incubator, rotating, in HEPES buffer) for A02 and A03. 37 C for 6 hours for A04, A05, and A06. ABTM-468(cho) at 10 ug/mL. *, P=0.0286 Mann-Whitney Rank Sum Test. ARDS patients survivors: A01, A04, A05, A06. ARDS non-survivor: A02.

[2] = test system: Panc1-cancer stem cell pancreatic carcinomatosis xenograft; experiment: CSC-derived pancreatic carcinomatosis xenograft tumor model in nude rats, comorbidities; type: in vivo, rat; settings: treatment start 3 weeks after Panc1-CSC injection; vs untreated
Description: FIG. 39 depicts a representative image of control untreated tumor rat (left panel) and ABTM-468 treated rat (right panel). Control rat was euthanized due to distress, treated rat was euthanized to obtain age- and tumor-duration-matched tumors. The xenograft tumor model was developed from Panc1-cancer stem cells injected into the peritoneal space 3 weeks prior to the start of treatment. T, tumors; GB, gall bladder.

Substance: hu-6g8: fully humanized anti-DEspR mAb with a S228P hinge-stabilized IgG4/kappa FC region
- survival (Panc1 xenograft): increased survival
- Observed decrease in neutrophil survival ([1]; patient A02 (Died), incubation 24 hrs, 79 hrs from ARDS diagnosis, baseline DEspR+/CD11b+ 59.2%, P 0.029, listed as anti-DEspR humanized IgG4S228P antibody): decreased survival
- baseline DEspR+/CD11b+ neutrophil percentage ([1]; patient A02): 59.2%
- Observed decrease in neutrophil survival ([1]; patient A03 (DNR, D.), incubation 24 hrs, 96 hrs from diagnosis, baseline DEspR+/CD11b+ 1.5%): No effect
- baseline DEspR+/CD11b+ neutrophil percentage ([1]; patient A03): 1.5%
- Observed decrease in neutrophil survival ([1]; patient A04 (Surv), incubation 6 hrs, 96 hrs from diagnosis, baseline DEspR+/CD11b+ 0.9%, listed as ABTM-468): No effect
- Observed decrease in neutrophil survival ([1]; patient A04 (Surv), incubation 6 hrs, 96 hrs from diagnosis, baseline DEspR+/CD11b+ 0.9%, listed as anti-DEspR humanized IgG4S228P antibody): no effect
- baseline DEspR+/CD11b+ neutrophil percentage ([1]; patient A04): 0.9%
- Observed decrease in neutrophil survival ([1]; patient A05 (Surv), incubation 6 hrs, 72 hrs from diagnosis, baseline DEspR+/CD11b+ 3%, listed as ABTM-468): No effect
- Observed decrease in neutrophil survival ([1]; patient A05 (Surv), incubation 6 hrs, 72 hrs from diagnosis, baseline DEspR+/CD11b+ 3%, listed as anti-DEspR humanized IgG4S228P antibody): no effect
- baseline DEspR+/CD11b+ neutrophil percentage ([1]; patient A05): 3%
- Observed decrease in neutrophil survival ([1]; patient A06 (Surv), incubation 6 hrs, 48 hrs from diagnosis, baseline DEspR+/CD11b+ 16.1%, n.s., listed as anti-DEspR humanized IgG4S228P antibody): Some efficacy is observed but variable
- baseline DEspR+/CD11b+ neutrophil percentage ([1]; patient A06): 16.1%
- cancer comorbidities (gut ischemia, ascites, gut dysfunction) [2]: reduced gut ischemia, serous or hemorrhagic ascites, distended gut, and ischemic-hemorrhagic gut (black gut) and gut dysfunction
